Assays:
HDAC6 = target: T1, HDAC6 (Homo sapiens, UniProt Q9UBN7); assay: ELISA-based HDAC activity assay, HDAC6; conditions: for HDAC6 fold selectivity HDAC1: HDAC6 over HDAC1; for HDAC6 fold selectivity HDAC1 / HDAC6 fold selectivity HDAC2 / HDAC6 fold selectivity HDAC3: calculated from IC50 values; for HDAC6 fold selectivity HDAC2: HDAC6 over HDAC2; for HDAC6 fold selectivity HDAC3: HDAC6 over HDAC3
T1 sequence (Q9UBN7 1-1215): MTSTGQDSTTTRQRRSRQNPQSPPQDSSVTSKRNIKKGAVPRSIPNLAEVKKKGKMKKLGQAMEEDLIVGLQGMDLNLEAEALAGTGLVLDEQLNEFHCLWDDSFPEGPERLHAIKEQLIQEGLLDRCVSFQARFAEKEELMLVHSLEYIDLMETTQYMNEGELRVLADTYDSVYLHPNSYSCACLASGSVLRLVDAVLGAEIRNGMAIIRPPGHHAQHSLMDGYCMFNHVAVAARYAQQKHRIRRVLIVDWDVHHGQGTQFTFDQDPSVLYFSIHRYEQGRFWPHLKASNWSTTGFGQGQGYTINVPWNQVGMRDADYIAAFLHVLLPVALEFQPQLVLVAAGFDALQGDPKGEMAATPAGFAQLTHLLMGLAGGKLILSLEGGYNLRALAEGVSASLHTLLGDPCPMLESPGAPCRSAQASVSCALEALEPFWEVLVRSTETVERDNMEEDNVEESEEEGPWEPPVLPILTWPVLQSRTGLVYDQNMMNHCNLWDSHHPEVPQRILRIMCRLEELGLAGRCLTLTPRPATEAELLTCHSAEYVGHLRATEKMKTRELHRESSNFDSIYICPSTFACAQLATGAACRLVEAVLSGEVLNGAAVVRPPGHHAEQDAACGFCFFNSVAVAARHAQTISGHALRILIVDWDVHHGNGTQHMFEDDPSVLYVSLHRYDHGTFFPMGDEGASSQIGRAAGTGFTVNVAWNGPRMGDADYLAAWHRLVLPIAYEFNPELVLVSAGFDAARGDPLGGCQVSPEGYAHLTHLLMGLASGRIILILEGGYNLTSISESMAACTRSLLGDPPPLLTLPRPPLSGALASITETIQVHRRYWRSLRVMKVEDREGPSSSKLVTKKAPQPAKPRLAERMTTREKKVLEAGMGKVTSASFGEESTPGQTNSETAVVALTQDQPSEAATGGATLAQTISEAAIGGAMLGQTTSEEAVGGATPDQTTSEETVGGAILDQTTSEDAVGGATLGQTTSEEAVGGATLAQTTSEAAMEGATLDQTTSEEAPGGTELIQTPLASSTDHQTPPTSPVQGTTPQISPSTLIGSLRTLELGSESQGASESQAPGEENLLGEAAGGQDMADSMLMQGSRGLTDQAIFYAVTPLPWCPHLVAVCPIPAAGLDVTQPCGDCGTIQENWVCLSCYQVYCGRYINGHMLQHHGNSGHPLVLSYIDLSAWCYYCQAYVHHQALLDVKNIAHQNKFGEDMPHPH

U937 cells = assay: In vitro cell growth inhibition, MTT assay, U937; format: cell-based; conditions: Homo sapiens, U-937, U937 cell line
in vitro = conditions: human, Jurkat cells (leukemia cell line)
[1] = tested on: acetyl-α-tubulin (HDAC6 substrate) in U937 cells; assay: In cellulo selectivity testing, western blot of acetyl-α-tubulin; format: cell-based; conditions: 18 hours, SAHA 5 μM, 1f 20-60 μM, compared to DMSO control
[2] = read-out: Deacetylase activity (%) HDAC6

Compound | IC50 (HDAC6) [nM] | HDAC6 fold selectivity HDAC1 (HDAC6) [fold] | HDAC6 fold selectivity HDAC2 (HDAC6) [fold] | HDAC6 fold selectivity HDAC3 (HDAC6) [fold] | activity at 0.05 µM (HDAC6; [2]) [%] | activity at 0.1 µM (HDAC6; [2]) [%] | activity at 0.2 µM (HDAC6; [2]) [%] | activity at 0.4 µM (HDAC6; [2]) [%] | activity at […] (HDAC6; [2]) [%] | activity at 1.25 µM (HDAC6; [2]) [%] | EC50 (U937 cells) [nM] | viability at 44 h, 1 µM (in vitro) [%] | viability at 44 h, 10 µM (in vitro) [%] | levels of acetyl-α-tubulin (AcTub), western blot [1] | activity at 5 µM (HDAC6; [2]) [%]
CCC(CCCC(=O)Nc1ccccc1)CCC(=O)NO (racemic) [Compound 1b, 4-ethyl-N^1-hydroxy-N^8-phenyloctanediamide] | 160 ± 10 | 28 | 31 | 38 | 74 ± 7 | 61 ± 6 | 43 ± 5 | 33 ± 3 | 80 ± 8 | – | – | – | – | – | –
CCCCCCC(CCCC(=O)Nc1ccccc1)CCC(=O)NO (racemic) [Compound 1d, 4-hexyl-N^1-hydroxy-N^8-phenyloctanediamide] | 140 ± 10 | 250 | 270 | 210 | 75 ± 6 | 56 ± 4 | 42 ± 4 | 27 ± 2 | 77 ± 9 | 21 ± 2 | 16000 | 69 ± 4 | 39 ± 6 | – | –
O=C(CCC(CCCC(=O)Nc1ccccc1)Cc1ccccc1)NO (racemic) [Compound 1f, 4-benzyl-N^1-hydroxy-N^8-phenyloctanediamide] | 140 | 210 | 270 | 300 | 76 ± 5 | 60 ± 4 | 45 ± 5 | 18 ± 4 | 90 ± 7 | – | 28000 | 89 ± 20 | 97 ± 4 | dose-dependent increase | 2.9 ± 0.5
